For 38 compounds, Ki results are on record in patent US7115600B2, “Histamine-3 receptor modulators” (Pfizer Inc., priority 2004, dated 2006).

For this experiment, the target named is T1, rat histamine H3 receptors (Rattus norvegicus, UniProt Q9QYN8).
T1 construct: Frozen rat frontal brain or frozen human post-mortem frontal brain is homogenized; from tissue; host or cells: rat frontal brain membranes
The experiment can be described thus: Rat Histamine H3 Receptor Binding. The following applies: frozen rat frontal brain membranes; radioligand 1 nM 3H-N-methyl-histamine; 1 hour incubation; read-out: rH3 Ki.

pKi: −log10 of the molar value.

T1 sequence (Q9QYN8 whole entry): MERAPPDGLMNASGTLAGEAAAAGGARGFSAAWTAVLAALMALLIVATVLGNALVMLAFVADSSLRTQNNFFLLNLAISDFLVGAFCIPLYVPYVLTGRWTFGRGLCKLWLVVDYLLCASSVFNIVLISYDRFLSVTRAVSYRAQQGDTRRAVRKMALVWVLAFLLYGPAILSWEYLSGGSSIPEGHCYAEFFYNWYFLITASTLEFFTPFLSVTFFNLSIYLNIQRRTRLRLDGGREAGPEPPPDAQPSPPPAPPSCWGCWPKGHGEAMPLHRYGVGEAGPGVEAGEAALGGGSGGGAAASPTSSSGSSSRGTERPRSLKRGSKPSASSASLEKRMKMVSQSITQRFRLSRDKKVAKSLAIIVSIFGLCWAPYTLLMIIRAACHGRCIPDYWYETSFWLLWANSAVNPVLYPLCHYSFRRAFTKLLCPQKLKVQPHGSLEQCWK
Experimental: The in vitro affinity of the compounds in the present invention at the rat or human histamine H3 receptors can be determined according to the following procedure. Frozen rat frontal brain or frozen human post-mortem frontal brain is homogenized in 20 volumes of cold 50 mM Tris HCl containing 2 mM MgCl2 (pH to 7.4 at 4 degrees C.). The homogenate is then centrifuged at 45,000 G for 10 minutes. The supernatant is decanted and the membrane pellet resuspended by Polytron in cold 50 mM Tris HCl containing 2 mM MgCl2 (pH to 7.4 at 4 degrees C.) and centrifuged again. The final pellet is resuspended in 50 mM Tris HCl containing 2 mM MgCl2 (pH to 7.4 at 25 degrees C.) at a concentration of 12 mg/mL. Dilutions of compounds are made in 10% DMSO/50 mM Tris buffer (pH 7.4) (at 10× final concentration, so that the final DMSO concentration is 1%). Incubations are initiated by the addition of membranes (200 microliters) to 96 well V-bottom polypropylene plates containing 25 microliters of drug dilutions and 25 microliters of radioligand (1 nM final concentration 3H—N-methyl-histamine). After a 1 hour incubation, assay samples are rapidly filtered through Whatman GF/B filters and rinsed with ice-cold 50 nM Tris buffer (pH 7.4) using a Skatron cell harvester. Radioactivity is quantified using a BetaPlate scintillation counter. The percent inhibition of specific binding can then be calculated.

For orientation: pKi means the Ki on a negative log10 scale, so that one unit is a factor of ten. As to `c1cc(C2CCNC2)nc(OC[C@H]2C[C@@H](c3ccc(CN4CCCC4)cc3)C2)n1` (relative stereo) [Example 65, cis-4-Pyrrolidin-3-yl-2-[3-(4-pyrrolidin-1-ylmethyl-phenyl)-cyclobutylmethoxy]-pyrimidine], the pKi is 8.14. The figure for `CCCN(CC1CC1)C[C@H]1C[C@H](c2ccc(CN3CCCC3)cc2)C1` [Example 124] is 9.31; for `Cc1ccc(COCC2CC(c3ccc(CN4CCCC4)cc3)C2)cc1` (centres unmarked) [Example 27, 1-{4-[3-(4-Methyl-benzyloxymethyl)-cyclobutyl]-benzyl}-pyrrolidine] it is 7.13; for `CC1CCCC(C)N1C[C@H]1C[C@H](c2ccc(CN3CCCC3)cc2)C1` (stereo partly drawn) [Example 121, trans-2,6-Dimethyl-1-[3-(4-pyrrolidin-1-ylmethyl-phenyl)-cyclobutylmethyl]-piperidine] it is 8.55.

On to `CN(C[C@H]1C[C@H](c2ccc(CN3CCCC3)cc2)C1)C1CCCCC1` [Example 115, trans-Cyclohexyl-methyl-[3-(4-pyrrolidin-1-ylmethyl-phenyl)-cyclobutylmethyl]-amine], for which the pKi was 8.84. Take `C[C@@H]1CN(C[C@H]2C[C@H](c3ccc(CN4CCCC4)cc3)C2)C[C@H](C)O1` [Example 126, trans-(2R,6S)-2,6-Dimethyl-4-[3-(4-pyrrolidin-1-ylmethyl-phenyl)-cyclobutylmethyl]-morpholine]: the pKi is 8.72. The same measure for `Cc1nnc(OC[C@H]2C[C@@H](c3ccc(CN4CCCC4)cc3)C2)c2ccccc12` [Example 78, cis-1-Methyl-4-[3-(4-pyrrolidin-1-ylmethyl-phenyl)-cyclobutylmethoxy]-phthalazine]: 6.96; for `Cc1cnc(OC[C@H]2C[C@@H](c3ccc(CN4CCCC4)cc3)C2)nc1C1CCCNC1` (relative stereo) [Example 59, cis-5-Methyl-4-piperidin-3-yl-2-[3-(4-pyrrolidin-1-ylmethyl-phenyl)-cyclobutylmethoxy]-pyrimidine]: 7.58. Consider `Cc1cnc(C)c(OCC2CC(c3ccc(CN4CCCC4)cc3)C2)n1` (centres unmarked) [Example 41, 2,5-Dimethyl-3-[3-(4-pyrrolidin-1-ylmethyl-phenyl)-cyclobutylmethoxy]-pyrazine], for which the pKi is 7.50.

As to `Cc1ccc(S(=O)(=O)OCC2CC(c3ccc(CN4CCCC4)cc3)C2)cc1` (centres unmarked) [Example 4, Toluene-4-sulfonic acid 3-(4-pyrrolidin-1-ylmethyl-phenyl)-cyclobutylmethyl ester], the pKi is 8.25. The same measure for `Cc1cnc(OC[C@H]2C[C@@H](c3ccc(CN4CCCC4)cc3)C2)nc1C1CCNCC1` [Example 81, cis-5-Methyl-4-piperidin-4-yl-2-[3-(4-pyrrolidin-1-ylmethyl-phenyl)-cyclobutylmethoxy]-pyrimidine]: 7.24; for `N#Cc1ccccc1COCC1CC(c2ccc(CN3CCCC3)cc2)C1` (centres unmarked) [Example 6, 2-[3-(4-Pyrrolidin-1-ylmethyl-phenyl)-cyclobutylmethoxymethyl]-benzonitrile]: 6.91.

With `CC1CCCN1C[C@H]1C[C@H](c2ccc(CN3CCCC3)cc2)C1` (relative stereo) [Example 120, trans-2-Methyl-1-[3-(4-pyrrolidin-1-ylmethyl-phenyl)-cyclobutylmethyl]-pyrrolidine], the pKi is 8.47. On to `Cc1cc(C)nc(OC[C@H]2C[C@H](c3ccc(CN4CCCC4)cc3)C2)n1` [Example 55, trans-4,6-Dimethyl-2-[3-(4-pyrrolidin-1-ylmethyl-phenyl)-cyclobutylmethoxy]-pyrimidine], for which the pKi is 7.03.

Regarding `COc1ccc(-c2cnc(OC[C@H]3C[C@@H](c4ccc(CN5CCCC5)cc4)C3)nc2)cc1` [Example 92, cis-5-(4-Methoxy-phenyl)-2-[3-(4-pyrrolidin-1-ylmethyl-phenyl)-cyclobutylmethoxy]-pyrimidine], the negative-log Ki (pKi) is 6.93. With `c1cc([C@H]2C[C@H](CN3CCCC3)C2)ccc1CN1CCCC1` [Example 107, trans-1-[3-(4-Pyrrolidin-1-ylmethyl-phenyl)-cyclobutylmethyl]-pyrrolidine], the pKi was 8.68. The figure for `COc1cc(OCC2CC(c3ccc(CN4CCCC4)cc3)C2)nc(OC)n1` (centres unmarked) [Example 46, 2,4-Dimethoxy-6-[3-(4-pyrrolidin-1-ylmethyl-phenyl)-cyclobutylmethoxy]-pyrimidine] is 6.98; for `Cc1cc(C2CCNCC2)nc(OC[C@H]2C[C@@H](c3ccc(CN4CCCC4)cc3)C2)n1` [Example 77, cis-4-Methyl-6-piperidin-4-yl-2-[3-(4-pyrrolidin-1-ylmethyl-phenyl)-cyclobutylmethoxy]-pyrimidine] it is 7.37; for `C[C@@H]1CC[C@@H](C)N1C[C@H]1C[C@H](c2ccc(CN3CCCC3)cc2)C1` [Example 123, trans-(2R,5R)-2,5-Dimethyl-1-[3-(4-pyrrolidin-1-ylmethyl-phenyl)-cyclobutylmethyl]-pyrrolidine] it is 8.16. The same measure for `COC[C@@H]1CCCN1C[C@H]1C[C@H](c2ccc(CN3CCCC3)cc2)C1` [Example 128, trans-(S)-2-Methoxymethyl-1-[3-(4-pyrrolidin-1-ylmethyl-phenyl)-cyclobutylmethyl]-pyrrolidine]: 8.05; for `Cc1cnc(OC[C@H]2C[C@@H](c3ccc(CN4CCCC4)cc3)C2)nc1C1CCNC1` (relative stereo) [Example 88, cis-5-Methyl-4-pyrrolidin-3-yl-2-[3-(4-pyrrolidin-1-ylmethyl-phenyl)-cyclobutylmethoxy]-pyrimidine]: 8.42; for `CCN(CCO)C[C@H]1C[C@H](c2ccc(CN3CCCC3)cc2)C1` [Example 113, trans-2-{Ethyl-[3-(4-pyrrolidin-1-ylmethyl-phenyl)-cyclobutylmethyl]-amino}-ethanol]: 8.35. The figure for `N#Cc1cccc(COCC2CC(c3ccc(CN4CCCC4)cc3)C2)c1` (centres unmarked) [Example 5, 3-[3-(4-Pyrrolidin-1-ylmethyl-phenyl)-cyclobutylmethoxymethyl]-benzonitrile] is 7.05. `c1cc([C@H]2C[C@@H](CN3CCNCC3)C2)ccc1CN1CCCC1` [Example 101, cis-1-[3-(4-Pyrrolidin-1-ylmethyl-phenyl)-cyclobutylmethyl]-piperazine]: the pKi was 8.32. The figure for `c1ccc(COCC2CC(c3ccc(CN4CCCC4)cc3)C2)cc1` (centres unmarked) [Example 2, 1-[4-(3-Benzyloxymethyl-cyclobutyl)-benzyl]-pyrrolidine] is 7.01; for `Fc1cc(F)cc(COCC2CC(c3ccc(CN4CCCC4)cc3)C2)c1` (centres unmarked) [Example 14, 1-(4-{-3-[(3,5-Difluoro-phenyl)methoxymethyl]-cyclobutyl}-benzyl)-pyrrolidine] it is 7.10. The same measure for `Fc1cnc(N2CCN(C[C@H]3C[C@H](c4ccc(CN5CCCC5)cc4)C3)CC2)nc1` [Example 112, trans-5-Fluoro-2-{4-[3-(4-pyrrolidin-1-ylmethyl-phenyl)-cyclobutylmethyl]-piperazin-1-yl}-pyrimidine]: 9.11; for `FC(F)(F)c1cc(-c2ccccc2)nc(OC[C@H]2C[C@@H](c3ccc(CN4CCCC4)cc3)C2)n1` [Example 76, cis-4-Phenyl-2-{[3-(4-pyrrolidin-1-ylmethyl-phenyl)-cyclobutylmethyl]oxy}-6-trifluoromethyl-pyrimidine]: 8.72; for `Cc1cc(C2CCNC2)nc(OC[C@H]2C[C@@H](c3ccc(CN4CCCC4)cc3)C2)n1` (relative stereo) [Example 66, cis-4-Methyl-6-pyrrolidin-3-yl-2-[3-(4-pyrrolidin-1-ylmethyl-phenyl)-cyclobutylmethoxy]-pyrimidine]: 8.32. As for `O=C1CN(C[C@H]2C[C@H](c3ccc(CN4CCCC4)cc3)C2)CCN1` [Example 127, trans-4-[3-(4-Pyrrolidin-1-ylmethyl-phenyl)-cyclobutylmethyl]-piperazin-2-one], the negative logarithm of the Ki (pKi) was 7.00. The same measure for `CC1CCN(C[C@H]2C[C@H](c3ccc(CN4CCCC4)cc3)C2)CC1` [Example 119, trans-4-Methyl-1-[3-(4-pyrrolidin-1-ylmethyl-phenyl)-cyclobutylmethyl]-piperidine]: 8.87; for `c1ccc(C2CCCN2C[C@H]2C[C@H](c3ccc(CN4CCCC4)cc3)C2)nc1` (relative stereo) [Example 109, trans-2-{1-[3-(4-Pyrrolidin-1-ylmethyl-phenyl)-cyclobutylmethyl]-pyrrolidin-2-yl}-pyridine]: 8.59; for `Cc1ccc(S(=O)(=O)OC[C@H]2C[C@H](c3ccc(CN4CCCC4)cc3)C2)cc1` [Example 48, trans-Toluene-4-sulfonic acid 3-(4-pyrrolidin-1-ylmethyl-phenyl)-cyclobutylmethyl ester]: 7.01. The figure for `Cc1ccc(S(=O)(=O)OC[C@H]2C[C@@H](c3ccc(CN4CCCC4)cc3)C2)cc1` [Example 47, cis-Toluene-4-sulfonic acid 3-(4-pyrrolidin-1-ylmethyl-phenyl)-cyclobutylmethyl ester] is 7.64; for `CC1CC(C)CN(C[C@H]2C[C@H](c3ccc(CN4CCCC4)cc3)C2)C1` (stereo partly drawn) [Example 114, trans-3,5-Dimethyl-1-[3-(4-pyrrolidin-1-ylmethyl-phenyl)-cyclobutylmethyl]-piperidine] it is 9.32; for `Fc1cnc(N2CCN(C[C@H]3C[C@@H](c4ccc(CN5CCCC5)cc4)C3)CC2)nc1` [Example 102, cis-5-Fluoro-2-{4-[3-(4-pyrrolidin-1-ylmethyl-phenyl)-cyclobutylmethyl]-piperazin-1-yl}-pyrimidine] it is 8.74. As for `Cc1ccc(C)n1-c1ccc(OC[C@H]2C[C@@H](c3ccc(CN4CCCC4)cc3)C2)nn1` [Example 90, cis-3-(2,5-Dimethyl-pyrrol-1-yl)-6-{[3-(4-pyrrolidin-1-ylmethyl-phenyl)-cyclobutylmethyl]oxy}-pyridazine], the pKi is 7.47. With `CN(Cc1cccnc1)C[C@H]1C[C@H](c2ccc(CN3CCCC3)cc2)C1` [Example 122, trans-Methyl-pyridin-3-ylmethyl-[3-(4-pyrrolidin-1-ylmethyl-phenyl)-cyclobutylmethyl]-amine], the pKi is 8.57.
